Data reported in patent publication US11827582B2, “Substituted amines as disrupters of ABETA42 oligomer formation” (ACELOT, INC., priority 2017, dated 2023).
Like-named read-outs stand apart in the source and are kept apart here.

Key:
[1] = tested on: Aβ oligomer induced changes in membrane trafficking in 21 DIV primary rodent neuronal cultures; assay: Membrane trafficking assay (MTT) in primary neuronal cultures treated with oligomeric Aβ; type: cell-based; details: read-out: MTT ASSAY EC50
Description: Seven drug candidates (A0101-A0107) (FIG. 2) were tested in a primary cell biological screening assay capable of measuring Aβ oligomer induced changes in membrane trafficking in 21 DIV primary rodent neuronal cultures (see Izzo et al., PLoS ONE 9(11):e111899, 2014). Briefly, cultures were treated with either oligomeric Aβ or oligomeric Aβ plus a candidate compound for 24 hours. Non-Aβ treated cells served as a negative control. Next, a non-membrane permeable dye (MTT) was added to the dishes for 1 hour, during which time the dye can be internalized by endocytosis. At the end of the hour, the dye containing media was removed, the dishes were rinsed extensively with isotonic buffer, and finally, the washed cells were extracted with a Triton X-100 buffer to solubilize membranes and release the dye, which is quantitated.

[2] = target: Human Ether-á-go-go-Related-Gene channel (hERG) (Homo sapiens, UniProt Q12809); assay: hERG cellular patch-clamp assay (cardiac toxicity)
Sequence of Human Ether-á-go-go-Related-Gene channel (hERG) (Q12809 whole entry): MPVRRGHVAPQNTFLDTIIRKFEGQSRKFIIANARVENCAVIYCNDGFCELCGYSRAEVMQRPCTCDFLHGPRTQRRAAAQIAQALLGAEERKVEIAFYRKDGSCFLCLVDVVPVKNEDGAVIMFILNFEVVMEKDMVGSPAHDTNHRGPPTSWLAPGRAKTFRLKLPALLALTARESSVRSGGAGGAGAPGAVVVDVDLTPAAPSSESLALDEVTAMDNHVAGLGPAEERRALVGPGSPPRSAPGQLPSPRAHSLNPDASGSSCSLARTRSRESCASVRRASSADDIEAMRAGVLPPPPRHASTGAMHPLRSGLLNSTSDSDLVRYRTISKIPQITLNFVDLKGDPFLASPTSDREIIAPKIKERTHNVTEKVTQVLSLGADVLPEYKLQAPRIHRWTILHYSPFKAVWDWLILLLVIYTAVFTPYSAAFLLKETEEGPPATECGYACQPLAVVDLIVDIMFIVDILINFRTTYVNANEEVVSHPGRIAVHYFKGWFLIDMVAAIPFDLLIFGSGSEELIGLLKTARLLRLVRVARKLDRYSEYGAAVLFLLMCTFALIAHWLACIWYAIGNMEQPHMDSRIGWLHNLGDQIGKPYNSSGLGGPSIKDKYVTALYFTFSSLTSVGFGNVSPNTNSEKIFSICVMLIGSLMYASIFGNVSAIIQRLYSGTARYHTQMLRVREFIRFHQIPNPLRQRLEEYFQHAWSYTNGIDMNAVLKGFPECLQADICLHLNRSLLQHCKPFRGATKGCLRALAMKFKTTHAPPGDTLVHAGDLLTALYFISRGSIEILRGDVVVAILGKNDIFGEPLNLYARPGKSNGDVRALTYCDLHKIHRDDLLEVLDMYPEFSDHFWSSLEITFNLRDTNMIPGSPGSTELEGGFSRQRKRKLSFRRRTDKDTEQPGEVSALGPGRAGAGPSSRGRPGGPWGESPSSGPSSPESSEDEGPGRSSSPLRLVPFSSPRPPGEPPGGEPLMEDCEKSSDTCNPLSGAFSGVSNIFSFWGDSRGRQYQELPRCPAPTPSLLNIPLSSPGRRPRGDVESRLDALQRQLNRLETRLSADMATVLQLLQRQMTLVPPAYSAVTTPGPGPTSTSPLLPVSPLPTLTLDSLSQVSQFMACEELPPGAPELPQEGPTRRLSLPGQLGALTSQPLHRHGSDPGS
Description: Contract laboratories provided screening of hERG ion channel cell lines as an indicator of cardiac safety. […] Cellular “patch-clamp” assays provide the data required by ICH guidelines.

[3] = Caco-2 A-B and B-A permeability test; type: in vitro ADME; details: human
Description: Subsequently, Caco-2 A-B and B-A permeability tests (pH 7.4) were performed on the […]-107 molecules in order to assess their human intestinal permeability and drug efflux. This assay measures the […] rate of transport of a compound across the Caco-2 cell line that is derived from a human colon carcinoma. The cells have characteristics that resemble intestinal epithelial cells such as the formation of a polarized monolayer, well-defined brush border on the apical surface and intercellular junctions.

wild type Aβ42 = wild type Aβ42 (Homo sapiens, UniProt P05067); assay: IMS-MS assay for Aβ42 oligomer formation (arrival time distributions); details: for Aβ42 wt dodecamer formation (overall conclusion): 10 μM in 10 mM ammonium acetate
Sequence of wild type Aβ42 (P05067 672-713 limits assumed): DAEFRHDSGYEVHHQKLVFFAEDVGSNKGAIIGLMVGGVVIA
Description: A physiologically relevant solution of Aβ42 and a drug candidate was incubated for varying periods of time and then loaded into a special spray capillary and the solution nano-electrosprayed, captured by an ion funnel, transported, dehydrated and continuously fed into a quadrapole mass analyser, and detected. This process yielded a mass spectrum. In order to obtain either structural or oligomeric information, the ions were next stored at the end of the funnel and then pulse injected at low energy into a drift cell filled with helium gas and subjected to a low electric field to transport the ions through the cell. The quadrapole is set to pass a particular mass to charge ratio (m=z), and an arrival time distribution (ATD) of the ions at this m=z is obtained at the detector (see, e.g., Bernstein et al., Journal of the American Chemical Society, 127(7):2075-2084, 2005). All molecules were at a concentration of 10 μM in 10 mM ammonium acetate.
By collecting Arrival Time Distributions (ATDs) of each of these charge states, ions of the same mass-to-charge (m/z) ratio were separated by their size and shape.
Using kinetic theory and parameters of the experiment, arrival times are related to an ion's mobility in the drift cell, which is inversely proportional to the ion's collision cross section. Oligomer formation is shown for dimer (n=2) up to dodecamer (n=12) for the z/n=−5/2 charge state.
For example, the peak in z/n=−3 ATD with a collision cross section of 698 Å^2 corresponds to a less compact solution-phase monomer structure. The peak of 642 Å^2 corresponds to a more compact gas phase structure.

[4] = Caco-2, apical to basolateral, pH 7.4, read-out: A-B perm
[5] = Caco-2, basolateral to apical, pH 7.4, read-out: B-A perm

Row | SMILES | Papp A→B [3, 4] | Papp B→A [3, 5] | EC50 [1] | IC50 [2] | other results
1 | CC(=O)Nc1ccc(CNCCc2cccc(Cl)c2)cc1 [AC0101, N-[4-({[2-(3-chlorophenyl)ethyl]amino}methyl)phenyl]acetamide] | 101 ×10⁻⁶ cm/s | 41.6 ×10⁻⁶ cm/s | 3.9 µM | 8 µM | hERG inhibition (in words) ([2]; summary of Table 2, 4th column): moderate potency
2 | Cc1cc(CN2CC=C(c3ccc(O)cc3)CC2)no1 [AC0106, 4-{1-[(5-methyl-1,2-oxazol-3-yl)methyl]-1,2,3,6tetrahydropyridin-4-yl}phenol] | 74.4 ×10⁻⁶ cm/s | 42.3 ×10⁻⁶ cm/s | 1 µM | > 10 µM | –
3 | C[C@@H](NCCCc1cccc(C(F)(F)F)c1)c1cccc2ccccc12 [Cinacalcet, reference compound] | – | – | – | – | Aβ42 wt dodecamer formation (overall conclusion) (wild type Aβ42; IMS-MS): did not inhibit
4 | COc1cc2c(c(OC)c1OC)-c1ccc(OC)c(=O)cc1[C@@H](NC(C)=O)CC2 [colchicine, reference compound] | 0.1 ×10⁻⁶ cm/s | 13.9 ×10⁻⁶ cm/s | – | – | –
5 | CC(C)NCC(O)COc1cccc2ccccc12 (centres unmarked) [propranolol, reference compound] | 60.6 ×10⁻⁶ cm/s | 24.2 ×10⁻⁶ cm/s | – | – | –
6 | CNC(=C[N+](=O)[O-])NCCSCc1ccc(CN(C)C)o1 [ranitidine, reference compound] | – | – | – | – | Papp A→B ([3]; Caco-2, pH 7.4): 0.7 ×10⁻⁶ cm/s; Papp B→A ([3]; Caco-2, pH 7.4): 3.5 ×10⁻⁶ cm/s

Now from value to molecule, other results behind:

Row | Papp A→B [3, 4] | Papp B→A [3, 5] | SMILES | EC50 [1] | IC50 [2] | other results
7 | 30 ×10⁻⁶ cm/s | 4.5 ×10⁻⁶ cm/s | CN(C)Cc1ccc(CNCc2ccc3c(c2)OCCO3)cc1 [AC0102, (2,3-dihydro-1,4-benzodioxin-6-ylmethyl)({4[(dimethylamino)methyl]-phenyl}methyl)amine] | 3.5 µM | > 10 µM | –
8 | 61.6 ×10⁻⁶ cm/s | 39.7 ×10⁻⁶ cm/s | CN(C)C(=O)C(c1ccccc1)N1CCN(c2ccc(O)cc2)CC1 (centres unmarked) [AC0103, 2-[4-(4-hydroxyphenyl)piperazin-1-yl]-N,N-dimethyl-2 phenylacetamide] | 1.3 µM | > 10 µM | –
9 | 59.4 ×10⁻⁶ cm/s | 13.9 ×10⁻⁶ cm/s | N#Cc1cccc(CNCc2ccc(CN3CCOCC3)cc2)c1 [AC0104, 3-[({[4-(morpholin-4 ylmethyl)phenyl]methyl}amino)methyl]benzonitrile] | 0.7 µM | > 10 µM | –
10 | 18.4 ×10⁻⁶ cm/s | 6.5 ×10⁻⁶ cm/s | N#Cc1ccc(CNCc2cccc(CN3CCCC3)c2)cc1 [AC0107, 4-[({[3-(pyrrolidin-1-ylmethyl)phenyl]methyl}amino)methyl]benzonitrile] | 0.45 µM | > 10 µM | relative amounts of earlier arriving structures in z/n=−4 ATD (wild type Aβ42; 1:10 Aβ42 wt to compound, day 2): reduces; wild type Aβ42 dodecamer formation (wild type Aβ42; 1:10 Aβ42 wt to compound, day one): inhibited; Aβ42 hexamer growth (wild type Aβ42; IMS-MS): slowing hexamer growth; Aβ42 wt dodecamer formation (overall conclusion) (wild type Aβ42; IMS-MS): inhibitor of Aβ42 wt dodecamer formation; dodecamer formation in z/n=−5/2 ATD (wild type Aβ42; after 29 hours): still inhibited; earlier arriving structures in z/n=−3 ATD (wild type Aβ42; between 26 and 30 hours incubation time): disappear
